Experimental data as given in patent US20130184280A1, “SUBSTITUTED THIAZOLES AS VEGFR2 KINASE INHIBITORS” (TELIK, INC., priority 2011, published 2013).

Assays:
[1] = In Vitro Cytotoxicity Assay HCT116 (CellTiter-Glo); assay type: cell-based; conditions: human, HCT116 colon carcinoma cells, cultured three days
Procedure: (§1) The cell lines HL60 (human promyelocytic leukemia) and HCT116 (human colon carcinoma) were obtained from the American Type Culture Collection, Manassas, Va., U.S.A. All products were used in accordance with manufacturer's directions. The cytotoxicity assays were conducted in triplicate, in each case with solvent control.
(§2) Log-phase cells were trypsinized, collected by centrifugation, and resuspended in a small volume of fresh medium, and the density of viable cells was determined following Trypan Blue staining Cells were diluted in fresh media, the test compounds (concentrations between 0.1 μM and 200 μM, dissolved in DMSO, 50 μL) added immediately after dilution to achieve a final DMSO concentration of 0.5%, then the suspensions added at 150 μL/well to 96-well plates, and incubated overnight to allow attachment in the case of adherent cells. The cells were cultured for three days (about three doubling times). The cells were then collected by centrifugation, and 100 μL of the culture supernatant was replaced by the CellTiter-Glo reagent. After incubation for 15 minutes at room temperature, the plate was read with a luminometer. […] The table gives cytotoxicity IC50s in μm.

[2] = test system: HCT116 (human colon carcinoma); assay: In Vivo HCT116 Xenograft Model; conditions: athymic nu/nu mice
[3] = In Vitro Cytotoxicity Assay HL60 (CellTiter-Glo); assay type: cell-based; conditions: human, HL60 promyelocytic leukemia cells; HL 60 cells, cultured three days
Procedure: as §1, §2

[4] = biological target: T1, VEGFR2 kinase (Homo sapiens, UniProt P35968); assay: In Vitro VEGFR2 Kinase Assay; assay type: biochemical; conditions: FP; CSKtide substrate, 60 minutes at room temperature
T1 construct: purchased InVitrogen
Procedure: In Vitro VEGFR2 Kinase Assay
50 ng/well VEGFR2 kinase (from InVitrogen) was mixed in buffer (14.5 μL/well). To this were added, 0.5 μL of the compound of this invention at a concentration of 2.5% in DMSO. After incubatiuon for 5 minutes at room temperature, 5 μL of substrate (CSKtide, 400 nM) and 8 μL ATP were added. The mixture was incubated for 60 minutes at room temperature and 60 uL of binding reagent (beads) was added. After incubation overnight at room temperature, the plate was read with a LJL plate reader.

[5] = 30 mg/Kg intraperitoneally once/day on days 1-5 and 8-12, measured 2 days after last treatment

T1 sequence (P35968 20-1356): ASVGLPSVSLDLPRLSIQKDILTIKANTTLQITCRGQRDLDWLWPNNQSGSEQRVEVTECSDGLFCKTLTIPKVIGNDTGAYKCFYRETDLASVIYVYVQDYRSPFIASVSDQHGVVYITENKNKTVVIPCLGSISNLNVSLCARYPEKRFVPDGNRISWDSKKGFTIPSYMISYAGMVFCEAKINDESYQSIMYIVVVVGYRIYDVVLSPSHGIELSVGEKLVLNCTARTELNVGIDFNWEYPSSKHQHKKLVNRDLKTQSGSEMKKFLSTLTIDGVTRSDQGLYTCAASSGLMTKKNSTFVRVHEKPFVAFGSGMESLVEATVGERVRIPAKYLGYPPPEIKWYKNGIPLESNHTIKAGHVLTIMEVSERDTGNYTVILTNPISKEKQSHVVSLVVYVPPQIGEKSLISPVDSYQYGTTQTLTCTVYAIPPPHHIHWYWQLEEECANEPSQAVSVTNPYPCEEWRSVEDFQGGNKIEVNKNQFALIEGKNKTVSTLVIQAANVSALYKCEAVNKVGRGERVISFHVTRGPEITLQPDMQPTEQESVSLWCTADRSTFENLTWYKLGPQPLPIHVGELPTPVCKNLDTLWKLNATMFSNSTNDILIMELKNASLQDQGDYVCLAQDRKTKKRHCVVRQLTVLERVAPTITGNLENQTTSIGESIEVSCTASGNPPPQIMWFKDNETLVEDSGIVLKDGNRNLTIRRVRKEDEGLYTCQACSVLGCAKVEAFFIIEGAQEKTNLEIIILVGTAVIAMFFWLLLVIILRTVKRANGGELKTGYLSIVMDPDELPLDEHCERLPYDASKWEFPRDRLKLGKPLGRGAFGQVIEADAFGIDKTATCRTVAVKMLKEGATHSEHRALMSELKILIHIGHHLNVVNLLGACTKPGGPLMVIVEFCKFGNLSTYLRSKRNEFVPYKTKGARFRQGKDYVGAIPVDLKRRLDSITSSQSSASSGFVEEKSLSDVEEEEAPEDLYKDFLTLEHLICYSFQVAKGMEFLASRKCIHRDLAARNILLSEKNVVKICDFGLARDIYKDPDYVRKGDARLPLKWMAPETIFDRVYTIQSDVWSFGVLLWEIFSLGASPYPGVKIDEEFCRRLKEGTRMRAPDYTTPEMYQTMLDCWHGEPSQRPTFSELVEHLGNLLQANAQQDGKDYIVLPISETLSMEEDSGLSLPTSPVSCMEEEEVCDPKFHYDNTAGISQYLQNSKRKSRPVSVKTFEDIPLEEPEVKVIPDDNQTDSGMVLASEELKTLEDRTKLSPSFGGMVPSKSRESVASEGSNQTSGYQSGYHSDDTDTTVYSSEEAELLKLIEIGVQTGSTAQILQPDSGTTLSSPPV

Structure (SMILES) | IC50 [4] | IC50 at 3 days [1] | Tumor growth inhibition [2, 5] | Tumor growth inhibition ([2]; administered orally) | IC50 at 3 days [3]
Cc1cccc(NC(=O)Nc2cccc(-c3csc(-c4cncnc4N)n3)c2)c1 [Compound 17, 1-(3-(2-(4-aminopyrimidin-5-yl)thiazol-4-yl)phenyl)-3-m-tolylurea] | 10 nM | 1000 nM | showed inhibition of tumor growth compared to vehicle |  | 300 nM
COc1ccc(NC(=O)Nc2cccc(-c3csc(-c4cncnc4N)n3)c2)cc1 [Compound 14] | 30 nM | 20000 nM |  |  | 300 nM
Nc1ncncc1-c1nc(-c2cccc(NC(=O)Nc3ccccc3Cl)c2)cs1 [Compound 18] | 30 nM | 30000 nM |  |  | 500 nM
Nc1ncncc1-c1nc(-c2cccc(NC(=O)Nc3ccccc3C(F)(F)F)c2)cs1 [Compound 20] | 50 nM | 50000 nM |  |  | 700 nM
Nc1ncncc1-c1nc(-c2cccc(NC(=O)c3ccccc3)c2)cs1 [Compound 3] | 20 nM | 20000 nM | showed inhibition of tumor growth compared to vehicle |  | 3000 nM
Nc1ncncc1-c1nc(-c2cccc(NC(=O)c3cccc(Cl)c3)c2)cs1 [Compound 6, N-(3-(2-(4-aminopyrimidin-5-yl)thiazol-4-yl)phenyl)-3-chlorobenzamide] | 20 nM | > 50000 nM |  |  | 3000 nM

Continued, in another order:

IC50 [4] | Structure (SMILES) | IC50 at 3 days [1] | Tumor growth inhibition [2, 5] | Tumor growth inhibition ([2]; administered orally) | IC50 at 3 days [3]
20 nM | Nc1ncncc1-c1nc(-c2cccc(NC(=O)Nc3cccc(CN4CCOCC4)c3)c2)cs1 [Compound 46] | 8000 nM | showed inhibition of tumor growth compared to vehicle | showed inhibition of tumor growth when administered orally | 700 nM
20 nM | Nc1ncncc1-c1nc(-c2cccc(NC(=O)Nc3cccc(C(F)(F)F)c3)c2)cs1 [Compound 39] | 2000 nM |  |  | 1000 nM
400 nM | CN(C)Cc1cccc(C(=O)Nc2cccc(-c3csc(-c4cncnc4N)n3)c2)c1 [Compound 55] | 2000 nM |  |  | 400 nM
200 nM | Nc1ncncc1-c1nc(-c2cccc(NC(=O)c3ccccn3)c2)cs1 [Compound 21] | > 50000 nM |  |  | 4000 nM
40 nM | COc1ccccc1NC(=O)Nc1cccc(-c2csc(-c3cncnc3N)n2)c1 [Compound 26] | 7000 nM |  |  | 400 nM
